Test: antimicrobial activity of the recombinant antimicrobial peptide
Format: cell-based
Settings: recombinant histonin II purified from E. coli BL21(DE3)/pmIF3H, compared with naturally-occurring antimicrobial peptide

In the case of “RAGLQFPVGRLLRRLLRRLLR (histonin II peptide) [recombinant antimicrobial peptide]”, the antimicrobial activity is reported as “substantially the same antimicrobial activity as a naturally-occurring antimicrobial peptide”.
